Assay results as given in PubChem BioAssay (NCI).
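In this assay, cells in 96-well plates receive the compound at five concentrations for 48 hours. Endpoints are linearly interpolated between the surrounding concentrations. TGI is the concentration that stops growth completely.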

Legend:
Assay in all cases: inhibition of tumour cell growth, NCI panel, 48 h
IGROV1 ovarian = tested on: IGROV1 ovarian
MALME-3M melanoma = tested on: MALME-3M melanoma
CAKI-1 renal = tested on: CAKI-1 renal
DU-145 prostate = tested on: DU-145 prostate
UACC-62 melanoma = tested on: UACC-62 melanoma
UO-31 renal = tested on: UO-31 renal
NCI-H460 lung = tested on: NCI-H460 lung
SF-295 CNS = tested on: SF-295 CNS
SW-620 colon = tested on: SW-620 colon
HS 578T breast = tested on: HS 578T breast

| SMILES | TGI (IGROV1 ovarian) [µM] | TGI (MALME-3M melanoma) [µM] | TGI (CAKI-1 renal) [µM] | TGI (DU-145 prostate) [µM] | TGI (UACC-62 melanoma) [µM] | TGI (UO-31 renal) [µM] | TGI (NCI-H460 lung) [µM] | TGI (SF-295 CNS) [µM] | TGI (SW-620 colon) [µM] | TGI (HS 578T breast) [µM] |
| --- | --- | --- | --- | --- | --- | --- | --- | --- | --- | --- |
| CC1=C(/C=C/C(C)=C/C=C/C(C)=C/C(=O)OCC2OC(n3cc(F)c(=O)[nH]c3=O)CC2OC(=O)/C=C(C)/C=C/C=C(C)/C=C/C2=C(C)CCCC2(C)C)C(C)(C)CCC1 (stereo not given) | 20 | > 100 | > 100 | > 46.3 | > 23.8 | > 26.3 | > 26.7 | > 40.2 | > 52.5 | > 68.8 |
| CCCCCCCCC[C@@H]1C[C@@H]2CCC3C(C(=O)OC)=C(C)NC(=N1)N32 (stereo not given in full) | 19.4 | 29 | 37.8 | 21.9 | 17.4 | 30.9 | 16.3 | 23.6 | > 100 | 34.7 |
| CCOC(=O)c1cc2cc(N(C(C)=O)C(C)=O)ccc2s1 | > 100 | 46.1 | > 100 | > 100 | > 100 | > 100 | > 100 | > 100 | > 100 | 37.6 |
| CC/C(=N\NC(=O)c1cccnc1)c1ccc2c(c1)OCCO2 | > 100 | 91.5 | > 100 | > 100 | > 100 | > 100 | > 100 | > 100 | > 100 | 93.7 |
| Cc1ccc2c(c1)SSSSS2 | 40.8 | 44.6 | 36 | 31.2 | 36.2 | 33 | 32.5 | 37 | 37.1 | 69.6 |
| S=c1[nH]nc(COc2ccc3c(c2)CCCC3)n1/N=C/c1ccc(Cl)cc1 | 30.6 | 33.1 | 37.2 | 33 | 33.7 | 31.4 | 30.2 | 33.7 | 32.7 | 39.7 |
| CC(=O)N=C(N=Nc1c(O)[nH]c2ccc(C)cc12)NC(C)=O | > 100 | > 100 | > 100 | > 100 | > 100 | > 100 | > 100 | > 100 | > 100 | > 100 |
| CCOC(=O)CC(=O)NC1CC2CCC1(C)C2(C)C (stereo not given) | > 100 | > 100 | > 100 | > 100 | > 100 | > 100 | > 100 | > 100 | > 100 | > 100 |
| Cc1ccc(/C=C2\CN(C)CC3=C2OC(N)=C(C#N)C3c2ccc(C)cc2)cc1 (stereo not given) | 39.4 | 37.2 | 74.6 | 44.7 | 89.1 | 53.4 | 34.3 | 46 | > 100 | > 100 |
| CNc1ncnc(Sc2nc(N)nc3nc[nH]c23)c1[N+](=O)[O-] | 22.1 | 18.9 | 12.9 | > 100 | 16.2 | 13.9 | 3.28 | > 100 | 20.6 | > 43.9 |
| Brc1cccc(/C=C/CN2CCN(CCOC(c3ccccc3)c3ccccc3)CC2)c1 | 29.8 | 31.5 | 30.2 | 27.4 | 31.8 | 27.7 | 28.1 | 32.6 | 45.4 | 52 |
| OC1(c2ccccc2)CC2CCC(C1)N2CCc1ccccc1 (stereo not given) | > 100 | > 100 | > 100 | > 100 | > 100 | > 100 | > 100 | > 100 | > 100 | 80.6 |
| CN(C1=NCCO1)c1cccc2ccccc12 | > 10 | > 10 | > 10 | > 10 | > 10 | > 10 | > 10 | > 10 | > 10 | > 10 |
| C=C(O)c1ccccc1C#Cc1ccccc1C(=O)OC | > 10 | > 10 | > 10 | > 10 | > 10 | > 10 | > 10 | > 10 | > 10 | > 10 |
| CCOC(=O)c1nc2cc(N3CCOCC3)c(F)cc2[nH]c1=O | > 100 | > 100 | > 100 | > 100 | > 100 | > 100 | > 100 | > 100 | > 100 | > 100 |
